Key:
[1] = target: Mitogen-activated protein kinase 10 (Homo sapiens, UniProt P53779)
[2] = target: T1, Mitogen-activated protein kinase 8 (Homo sapiens, UniProt P45983)
[3] = target: TRAF2 and NCK-interacting protein kinase (Homo sapiens, UniProt Q9UKE5); experiment: Inhibition of TNIK (unknown origin) by kinase profiling assay
[4] = target: Voltage-gated inwardly rectifying potassium channel KCNH2 (Homo sapiens, UniProt Q12809)
[5] = target: Vascular endothelial growth factor receptor 3 (Homo sapiens, UniProt P35916); experiment: Inhibition of FLT4 (unknown origin) by kinase profiling assay
[6] = target: Mitogen-activated protein kinase 9 (Homo sapiens, UniProt P45984); experiment: Inhibition of JNK2 (unknown origin) by kinase profiling assay
[7] = target: T2, Serine/threonine-protein kinase D3 (Homo sapiens, UniProt O94806); experiment: Inhibition of PKD3 (unknown origin) by kinase profiling assay
T2 sequence (O94806 whole entry): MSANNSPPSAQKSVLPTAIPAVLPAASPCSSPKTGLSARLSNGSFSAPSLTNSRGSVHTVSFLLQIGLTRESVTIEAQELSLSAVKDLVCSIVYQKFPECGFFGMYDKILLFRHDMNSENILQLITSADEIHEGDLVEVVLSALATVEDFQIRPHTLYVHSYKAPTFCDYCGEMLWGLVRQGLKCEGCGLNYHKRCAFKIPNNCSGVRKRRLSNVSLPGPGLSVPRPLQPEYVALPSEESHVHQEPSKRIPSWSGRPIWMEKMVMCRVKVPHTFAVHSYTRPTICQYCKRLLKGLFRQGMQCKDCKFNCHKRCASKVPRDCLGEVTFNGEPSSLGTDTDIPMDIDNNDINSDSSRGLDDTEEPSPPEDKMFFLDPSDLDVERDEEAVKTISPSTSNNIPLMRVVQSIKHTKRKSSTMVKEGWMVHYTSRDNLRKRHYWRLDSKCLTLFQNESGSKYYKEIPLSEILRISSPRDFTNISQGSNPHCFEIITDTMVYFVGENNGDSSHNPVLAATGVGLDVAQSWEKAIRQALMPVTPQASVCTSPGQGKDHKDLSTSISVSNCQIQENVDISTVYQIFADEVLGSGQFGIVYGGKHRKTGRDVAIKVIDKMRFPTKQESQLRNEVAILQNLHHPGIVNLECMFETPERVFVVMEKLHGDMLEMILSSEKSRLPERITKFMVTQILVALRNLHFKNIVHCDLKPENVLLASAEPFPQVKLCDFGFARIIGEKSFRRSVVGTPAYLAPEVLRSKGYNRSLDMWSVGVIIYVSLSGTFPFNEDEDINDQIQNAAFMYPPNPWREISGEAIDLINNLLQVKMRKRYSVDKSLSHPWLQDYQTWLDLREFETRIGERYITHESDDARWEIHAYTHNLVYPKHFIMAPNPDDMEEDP

[8] = target: Cyclin-dependent kinase-like 3 (Homo sapiens, UniProt Q8IVW4); experiment: Inhibition of CDKL3 (unknown origin) by kinase profiling assay
[9] = target: T3, Dual specificity mitogen-activated protein kinase kinase 4 (Homo sapiens, UniProt P45985); experiment: Inhibition of MKK4 (unknown origin) by kinase profiling assay
T3 sequence (P45985 whole entry): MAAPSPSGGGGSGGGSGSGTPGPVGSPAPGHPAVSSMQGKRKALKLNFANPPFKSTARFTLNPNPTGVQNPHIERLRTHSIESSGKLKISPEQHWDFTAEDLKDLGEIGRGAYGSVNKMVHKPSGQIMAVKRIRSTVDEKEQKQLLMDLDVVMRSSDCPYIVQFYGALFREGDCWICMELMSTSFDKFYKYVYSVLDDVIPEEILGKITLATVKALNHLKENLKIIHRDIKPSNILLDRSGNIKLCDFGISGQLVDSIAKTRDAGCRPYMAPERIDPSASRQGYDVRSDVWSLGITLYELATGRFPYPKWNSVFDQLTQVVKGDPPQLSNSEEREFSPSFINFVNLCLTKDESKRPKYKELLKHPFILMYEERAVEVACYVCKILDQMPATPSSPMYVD

[10] = target: T4, Dual specificity mitogen-activated protein kinase kinase 7 (Homo sapiens, UniProt O14733); experiment: Inhibition of MKK7 (unknown origin) by kinase profiling assay
T4 sequence (O14733 whole entry): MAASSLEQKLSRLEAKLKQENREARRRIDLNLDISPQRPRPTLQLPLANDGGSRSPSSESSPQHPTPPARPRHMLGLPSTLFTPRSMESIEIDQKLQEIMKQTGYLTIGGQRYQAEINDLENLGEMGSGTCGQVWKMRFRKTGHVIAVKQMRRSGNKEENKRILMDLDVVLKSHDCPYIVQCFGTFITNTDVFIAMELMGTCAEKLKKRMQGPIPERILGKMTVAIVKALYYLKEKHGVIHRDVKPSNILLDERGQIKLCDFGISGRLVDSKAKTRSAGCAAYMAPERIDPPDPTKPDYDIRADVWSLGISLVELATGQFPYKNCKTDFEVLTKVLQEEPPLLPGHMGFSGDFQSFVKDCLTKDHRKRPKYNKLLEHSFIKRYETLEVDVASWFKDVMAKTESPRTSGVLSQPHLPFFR

[11] = target: T1, Mitogen-activated protein kinase 8; experiment: Inhibition of JNK1 (unknown origin) by kinase profiling assay

T1 sequence (P45983 whole entry): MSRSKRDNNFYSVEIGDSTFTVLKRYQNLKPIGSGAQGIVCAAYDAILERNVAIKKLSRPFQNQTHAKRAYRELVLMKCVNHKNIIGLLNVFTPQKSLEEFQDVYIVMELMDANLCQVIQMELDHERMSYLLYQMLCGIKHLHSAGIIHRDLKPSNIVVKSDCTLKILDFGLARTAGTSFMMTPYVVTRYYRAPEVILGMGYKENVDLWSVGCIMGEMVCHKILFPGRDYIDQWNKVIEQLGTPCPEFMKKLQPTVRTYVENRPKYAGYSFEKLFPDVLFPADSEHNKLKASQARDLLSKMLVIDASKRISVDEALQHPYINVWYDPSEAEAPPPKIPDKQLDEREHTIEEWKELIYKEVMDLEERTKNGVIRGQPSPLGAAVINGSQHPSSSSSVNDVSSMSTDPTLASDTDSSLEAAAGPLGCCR
Sequence of Mitogen-activated protein kinase 10 (P53779 whole entry): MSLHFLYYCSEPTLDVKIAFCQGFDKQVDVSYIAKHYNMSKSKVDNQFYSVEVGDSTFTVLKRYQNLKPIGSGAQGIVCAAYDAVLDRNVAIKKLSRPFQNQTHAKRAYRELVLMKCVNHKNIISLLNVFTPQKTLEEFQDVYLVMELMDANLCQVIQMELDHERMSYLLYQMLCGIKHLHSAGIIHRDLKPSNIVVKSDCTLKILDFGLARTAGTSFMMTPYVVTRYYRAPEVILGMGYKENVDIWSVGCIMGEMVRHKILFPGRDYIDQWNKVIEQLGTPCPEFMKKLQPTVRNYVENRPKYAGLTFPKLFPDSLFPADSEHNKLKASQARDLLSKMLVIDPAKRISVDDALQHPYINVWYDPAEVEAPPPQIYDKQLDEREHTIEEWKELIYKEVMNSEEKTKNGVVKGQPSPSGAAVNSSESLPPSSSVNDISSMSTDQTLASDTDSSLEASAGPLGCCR
Sequence of TRAF2 and NCK-interacting protein kinase (Q9UKE5 whole entry): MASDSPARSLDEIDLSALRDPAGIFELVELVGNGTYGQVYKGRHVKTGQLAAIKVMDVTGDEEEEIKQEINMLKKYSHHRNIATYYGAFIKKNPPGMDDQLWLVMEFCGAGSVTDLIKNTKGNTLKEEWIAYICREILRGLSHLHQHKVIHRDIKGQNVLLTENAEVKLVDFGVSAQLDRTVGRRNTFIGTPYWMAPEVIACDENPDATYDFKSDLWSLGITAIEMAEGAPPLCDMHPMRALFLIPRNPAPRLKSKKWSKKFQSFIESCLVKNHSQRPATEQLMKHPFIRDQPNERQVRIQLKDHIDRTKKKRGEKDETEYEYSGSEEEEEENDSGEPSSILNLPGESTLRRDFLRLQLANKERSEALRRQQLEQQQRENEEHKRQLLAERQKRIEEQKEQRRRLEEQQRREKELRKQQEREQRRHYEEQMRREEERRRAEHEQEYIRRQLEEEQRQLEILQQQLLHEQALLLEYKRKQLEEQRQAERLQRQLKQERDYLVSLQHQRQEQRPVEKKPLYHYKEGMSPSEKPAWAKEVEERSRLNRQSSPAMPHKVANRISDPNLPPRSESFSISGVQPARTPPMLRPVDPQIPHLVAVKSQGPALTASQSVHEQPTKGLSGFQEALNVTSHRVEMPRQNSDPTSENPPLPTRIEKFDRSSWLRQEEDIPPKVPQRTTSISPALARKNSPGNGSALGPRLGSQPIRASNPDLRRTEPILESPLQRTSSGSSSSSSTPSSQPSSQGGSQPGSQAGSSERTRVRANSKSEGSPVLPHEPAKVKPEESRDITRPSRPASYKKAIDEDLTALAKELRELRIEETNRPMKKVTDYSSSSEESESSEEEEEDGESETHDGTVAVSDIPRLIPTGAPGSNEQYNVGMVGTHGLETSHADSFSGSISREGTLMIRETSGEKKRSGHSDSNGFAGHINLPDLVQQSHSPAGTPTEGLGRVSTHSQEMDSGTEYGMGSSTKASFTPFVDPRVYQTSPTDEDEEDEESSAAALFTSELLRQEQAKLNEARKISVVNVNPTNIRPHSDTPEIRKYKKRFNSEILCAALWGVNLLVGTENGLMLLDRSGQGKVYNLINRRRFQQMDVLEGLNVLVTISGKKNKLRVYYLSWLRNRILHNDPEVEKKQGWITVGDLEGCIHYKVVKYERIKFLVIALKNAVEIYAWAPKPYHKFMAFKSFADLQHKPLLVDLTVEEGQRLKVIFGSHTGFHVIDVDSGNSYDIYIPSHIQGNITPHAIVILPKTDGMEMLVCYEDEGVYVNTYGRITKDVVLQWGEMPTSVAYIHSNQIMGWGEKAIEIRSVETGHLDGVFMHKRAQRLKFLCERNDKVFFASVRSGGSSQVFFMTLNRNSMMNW
Sequence of Mitogen-activated protein kinase 9 (P45984 whole entry): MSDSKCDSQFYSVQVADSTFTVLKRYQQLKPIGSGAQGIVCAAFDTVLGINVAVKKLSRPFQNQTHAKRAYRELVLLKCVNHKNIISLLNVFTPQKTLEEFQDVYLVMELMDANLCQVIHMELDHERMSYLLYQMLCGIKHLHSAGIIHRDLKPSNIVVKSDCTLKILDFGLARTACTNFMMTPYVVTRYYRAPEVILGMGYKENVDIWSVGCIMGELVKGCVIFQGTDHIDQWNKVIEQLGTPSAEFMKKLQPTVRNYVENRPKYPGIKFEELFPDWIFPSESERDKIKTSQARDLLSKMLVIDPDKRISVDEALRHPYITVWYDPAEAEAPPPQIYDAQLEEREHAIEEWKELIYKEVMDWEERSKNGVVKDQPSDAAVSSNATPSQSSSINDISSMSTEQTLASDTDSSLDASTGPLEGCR
Sequence of Vascular endothelial growth factor receptor 3 (P35916 whole entry): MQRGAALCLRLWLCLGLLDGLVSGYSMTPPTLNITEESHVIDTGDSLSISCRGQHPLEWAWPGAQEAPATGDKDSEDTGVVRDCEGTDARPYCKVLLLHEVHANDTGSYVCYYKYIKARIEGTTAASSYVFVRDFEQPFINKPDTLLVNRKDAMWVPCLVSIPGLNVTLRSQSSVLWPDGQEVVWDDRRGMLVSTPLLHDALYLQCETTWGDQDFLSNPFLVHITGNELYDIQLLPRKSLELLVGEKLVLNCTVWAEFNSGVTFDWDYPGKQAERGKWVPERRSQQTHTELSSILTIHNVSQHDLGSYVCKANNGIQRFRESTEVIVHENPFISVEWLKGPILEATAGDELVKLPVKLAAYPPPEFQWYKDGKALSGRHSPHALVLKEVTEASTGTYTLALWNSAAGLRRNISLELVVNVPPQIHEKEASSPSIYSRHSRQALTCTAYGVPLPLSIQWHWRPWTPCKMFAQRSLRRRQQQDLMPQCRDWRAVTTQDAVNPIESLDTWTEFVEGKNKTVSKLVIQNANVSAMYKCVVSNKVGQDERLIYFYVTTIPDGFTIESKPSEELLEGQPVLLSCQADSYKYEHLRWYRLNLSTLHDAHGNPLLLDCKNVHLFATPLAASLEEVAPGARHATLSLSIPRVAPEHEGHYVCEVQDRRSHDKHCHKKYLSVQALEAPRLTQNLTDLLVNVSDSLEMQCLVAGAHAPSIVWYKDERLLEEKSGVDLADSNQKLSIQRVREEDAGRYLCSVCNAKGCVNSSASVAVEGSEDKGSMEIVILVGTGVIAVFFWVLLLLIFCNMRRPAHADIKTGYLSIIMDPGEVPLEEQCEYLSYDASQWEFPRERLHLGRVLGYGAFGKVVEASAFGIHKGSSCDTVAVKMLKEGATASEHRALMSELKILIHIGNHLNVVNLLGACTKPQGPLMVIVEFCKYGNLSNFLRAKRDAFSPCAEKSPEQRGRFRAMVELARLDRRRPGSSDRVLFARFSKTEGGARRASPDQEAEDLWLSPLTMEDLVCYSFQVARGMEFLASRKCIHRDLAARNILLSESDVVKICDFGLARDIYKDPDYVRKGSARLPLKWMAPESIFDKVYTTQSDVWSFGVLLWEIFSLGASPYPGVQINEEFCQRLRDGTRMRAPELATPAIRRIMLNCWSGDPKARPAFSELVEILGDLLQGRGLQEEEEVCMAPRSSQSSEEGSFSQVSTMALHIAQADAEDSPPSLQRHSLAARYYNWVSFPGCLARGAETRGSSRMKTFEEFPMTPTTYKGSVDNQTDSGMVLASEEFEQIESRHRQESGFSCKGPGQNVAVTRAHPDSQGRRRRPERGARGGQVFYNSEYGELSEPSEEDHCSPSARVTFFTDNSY
Sequence of Cyclin-dependent kinase-like 3 (Q8IVW4 whole entry): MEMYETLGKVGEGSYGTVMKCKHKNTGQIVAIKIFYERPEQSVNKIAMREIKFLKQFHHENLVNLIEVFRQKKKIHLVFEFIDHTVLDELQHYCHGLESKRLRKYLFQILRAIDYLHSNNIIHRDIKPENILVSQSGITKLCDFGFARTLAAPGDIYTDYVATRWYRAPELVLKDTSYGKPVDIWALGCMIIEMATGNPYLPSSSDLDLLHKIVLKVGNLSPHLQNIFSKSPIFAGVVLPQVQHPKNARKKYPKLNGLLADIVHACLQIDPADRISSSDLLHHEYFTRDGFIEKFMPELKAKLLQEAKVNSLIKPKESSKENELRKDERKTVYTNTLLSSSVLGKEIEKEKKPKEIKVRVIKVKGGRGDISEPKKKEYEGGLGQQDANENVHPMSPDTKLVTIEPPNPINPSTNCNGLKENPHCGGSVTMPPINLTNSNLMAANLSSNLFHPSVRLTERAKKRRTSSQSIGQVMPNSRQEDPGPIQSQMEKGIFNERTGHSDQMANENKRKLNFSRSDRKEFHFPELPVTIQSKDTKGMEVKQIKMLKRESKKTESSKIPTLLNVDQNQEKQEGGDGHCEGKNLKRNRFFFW

SMILES	IC50 [1]	IC50 [2]	further results
O=C(NCCc1ccccc1)c1ccc(CNc2n[nH]c3ccccc23)cc1	> 10 µM	> 10 µM	
Cn1nc(NCc2cccc(C(=O)N3CCN(C(=O)c4ccc(Cl)cc4Cl)CC3)c2)c2ccccc21	> 10 µM	> 10 µM	
O=C(c1ccc(CNc2n[nH]c3ccccc23)cc1)N1CCN(C(=O)c2c(Cl)cccc2C(F)(F)F)CC1	0.253 µM	7.66 µM	
O=C(c1ccc(CNc2n[nH]c3ccccc23)cc1)N1CCN(C(=O)c2ccccc2I)CC1	0.399 µM	7.69 µM	
Cc1ccc(Cl)c(C(=O)N2CCN(C(=O)c3ccc(CNc4n[nH]c5ccccc45)cc3)CC2)c1	0.588 µM	> 10 µM	
Cc1cccc2c(NCc3cccc(C(=O)N4CCN(C(=O)c5ccc(Cl)cc5Cl)CC4)c3)n[nH]c12	> 10 µM	> 10 µM	
O=C(c1cccc(CNc2n[nH]c3ccccc23)c1)N1CCN(C(=O)c2cc(C(F)(F)F)ccc2F)CC1	4.46 µM		
O=C(c1ccc(CNc2n[nH]c3ccccc23)cc1)N1CCN(C(=O)c2cccc(C(F)(F)F)c2)CC1	0.927 µM	7.8 µM	
O=C(Nc1ccccc1)c1ccc(CNc2n[nH]c3ccccc23)cc1	> 10 µM	> 10 µM	
O=C(Nc1cc(C(F)(F)F)cc(C(F)(F)F)c1)N1CCN(C(=O)c2ccc(CNc3n[nH]c4ccccc34)cc2)CC1	8.03 µM	> 10 µM	
O=C(c1ccc(CNc2n[nH]c3ccccc23)cc1)N1CCN(C(=O)c2ccc(F)cc2Cl)CC1	0.647 µM	9.07 µM	
COc1ccc(C(=O)N2CCN(C(=O)c3ccc(CNc4n[nH]c5ccccc45)cc3)CC2)cc1	0.615 µM	7.7 µM	
O=C(c1ccc(CNc2n[nH]c3ccccc23)cc1)N1CCN(C(=O)c2cc(C(F)(F)F)ccc2Cl)CC1	0.282 µM	9.87 µM	
O=C(Nc1ccc(Cl)cc1)c1ccc(CNc2n[nH]c3ccccc23)cc1	> 10 µM	> 10 µM	
O=C(c1cccc(CNc2n[nH]c3cccc(F)c23)c1)N1CCN(C(=O)c2ccc(Cl)cc2Cl)CC1	0.189 µM	8 µM	
COc1ccc(C(=O)N2CCN(C(=O)c3ccc(CNc4n[nH]c5ccccc45)cc3)CC2)c(Cl)c1		> 10 µM	
O=C(c1cccc(CNc2n[nH]c3cc(Cl)ccc23)c1)N1CCN(C(=O)c2ccc(Cl)cc2Cl)CC1	0.239 µM		
O=C1c2ccccc2C2=NNC3=CC=CC1C32 (stereo unspecified)		0.0423 µM	

SMILES	IC50 [1]	IC50 [2]	further results
O=C(Nc1ccccc1Cl)N1CCN(C(=O)c2ccc(CNc3n[nH]c4ccccc34)cc2)CC1	0.619 µM	7.79 µM	
COc1ccc(NC(=O)c2ccc(CNc3n[nH]c4ccccc34)cc2)cc1	> 10 µM	> 10 µM	
O=C(c1cccc(CNc2n[nH]c3ccccc23)c1)N1CCN(C(=O)c2ccc(Cl)cc2Cl)CC1	4.03 µM	7.59 µM	
O=C(c1ccc(Cl)cc1)N1CCN(C(=O)c2ccc(CNc3n[nH]c4ccccc34)cc2)CC1	0.305 µM	8.82 µM	
O=C(c1cccc(CNc2n[nH]c3ccccc23)c1)N1CCN(C(=O)c2c(F)cccc2Cl)CC1	4.3 µM	7.82 µM	
O=C(c1ccc(CNc2n[nH]c3ccccc23)cc1)N1CCN(C(=O)c2ccccc2OC(F)(F)F)CC1	0.394 µM	8.28 µM	
O=C(c1ccc(CNc2n[nH]c3ccccc23)cc1)N1CCN(C(=O)c2ccc(OC(F)(F)F)cc2)CC1	0.325 µM	7.68 µM	
O=C(c1ccc(CNc2n[nH]c3ccccc23)cc1)N1CCN(C(=O)c2c(Cl)cccc2Cl)CC1	0.279 µM		
O=C(c1ccc(CNc2n[nH]c3ccccc23)cc1)N1CCCC1	7.51 µM	8.07 µM	
O=C(NN1CCCCC1)c1ccc(CNc2n[nH]c3ccccc23)cc1		9.06 µM	
Cc1cccc(Cl)c1C(=O)N1CCN(C(=O)c2ccc(CNc3n[nH]c4ccccc34)cc2)CC1		> 10 µM	
O=C(c1cccc(CNc2n[nH]c3cccc(Cl)c23)c1)N1CCN(C(=O)c2ccc(Cl)cc2Cl)CC1		> 10 µM	IC50 [3]: 0.367 µM; IC50 [4]: > 30 µM; IC50 [5]: 0.423 µM; IC50 [6]: 9.27 µM; IC50 [7]: 0.624 µM; IC50 [8]: 0.669 µM; IC50 [9]: > 10 µM; IC50 [10]: > 10 µM; IC50 [11]: > 10 µM
O=C(c1ccc(CNc2n[nH]c3ccccc23)cc1)N1CCN(C(=O)c2ccc(Br)cc2Br)CC1	0.248 µM	8.85 µM	
O=C(c1ccc(CNc2n[nH]c3ccccc23)cc1)N1CCN(C(=O)c2cccc(F)c2Cl)CC1	0.384 µM	8.91 µM	
O=C(c1ccc(CNc2n[nH]c3ccccc23)cc1)N1CCN(C(=O)c2cc(Cl)ccc2Cl)CC1	0.205 µM	7.61 µM	
Cc1cc(NC(=O)c2ccc(CNc3n[nH]c4ccccc34)cc2)ccc1Cl	> 10 µM	> 10 µM	
O=C(c1cccc(CNc2n[nH]c3c(Cl)cc([N+](=O)[O-])cc23)c1)N1CCN(C(=O)c2ccc(Cl)cc2Cl)CC1	> 10 µM	> 10 µM	

Reference: ChEMBL document CHEMBL5316320, “Discovery of Novel Indazole Chemotypes as Isoform-Selective JNK3 Inhibitors for the Treatment of Parkinson's Disease” (J Med Chem, 2023)
